The values below come from patent US8129417B2, “Substituted octahydrocyclopenta[C]pyrrol-4-amines as calcium channel blockers” (Abbott Laboratories, priority 2008, dated 2012).

pIC50: −log10 of the molar value.

One test has as its target human Cav2.2 (Homo sapiens, UniProt Q00975). The experiment in a line: Assessment of calcium channel activity using FLIPR (Ca2+ influx in IMR32 cells). It is filed as cell-based. To be noted: 60 minute pre-incubation with compound, 2 μM nifedipine, depolarized with 80 mM KCl. The gist of the method:
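IMR32 neuroblastoma cells seeded at 1-1.2×10^5 cells/well and grown 48 h at 37 °C before FLIPR Ca2+ influx read. Percent inhibition at each concentration vs no-inhibitor activity; IC50 by non-linear sigmoidal dose-response fit.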

The test system of the next test is Sprague Dawley rats. Description: Capsaicin induced secondary mechanical hyperalgesia model. It is filed as in vivo. To be noted: po, 1 h, read-out: % inhibition @ 30 mg/kg p.o., 60 minutes before testing, secondary mechanical hyperalgesia 180 minutes after intraplantar capsaicin, rat. The procedure:
(ii) In Vivo Data—Capsaicin Induced Secondary Mechanical Hyperalgesia Model:
Sprague Dawley rats were briefly restrained, and capsaicin was administered at 10 μg in 10 μL of vehicle by intraplantar injection into the center of the right hind paw. Secondary mechanical hyperalgesia (SMH) was measured at the heel away from the site of injection 180 minutes following capsaicin exposure. Compounds and gabapentin (positive control), were administered p.o. 60 minutes before testing (2 hours after capsaicin) or i.p. 30 minutes before testing (2.5 hours after capsaicin). SMH was measured using calibrated von Frey filaments (Stoelting, Woodale, Ill.). Following the 1 hour habituation in the testing room, rats were moved to individual plexiglass chambers that sit on top of a wire mesh to allow for access for stimulation of the plantar surface of the hind paws. Rats were allowed to acclimate to the new chambers for 15 minutes before the onset of testing. The paw withdrawal threshold was determined by increasing and decreasing stimulus intensity (force: g) and calculated using Dixon's up-down method (Chaplan, S. R.; Bach, F. W.; Pogrel, J. W.; Chung, J. M.; Yaksh, T. L.; Quantitative assessment of tactile allodynia in the rat paw. J. Neuroscience Methods 1994, 53(1), 55-63.). The filaments (maximum force of 15.0 g) were held in place for 8 seconds or until there was a withdrawal response from the mechanical stimulation.

In general, pIC50 refers to the IC50 on a negative log10 scale, so that one unit is a factor of ten.

Sequence of human Cav2.2 (Q00975 whole entry): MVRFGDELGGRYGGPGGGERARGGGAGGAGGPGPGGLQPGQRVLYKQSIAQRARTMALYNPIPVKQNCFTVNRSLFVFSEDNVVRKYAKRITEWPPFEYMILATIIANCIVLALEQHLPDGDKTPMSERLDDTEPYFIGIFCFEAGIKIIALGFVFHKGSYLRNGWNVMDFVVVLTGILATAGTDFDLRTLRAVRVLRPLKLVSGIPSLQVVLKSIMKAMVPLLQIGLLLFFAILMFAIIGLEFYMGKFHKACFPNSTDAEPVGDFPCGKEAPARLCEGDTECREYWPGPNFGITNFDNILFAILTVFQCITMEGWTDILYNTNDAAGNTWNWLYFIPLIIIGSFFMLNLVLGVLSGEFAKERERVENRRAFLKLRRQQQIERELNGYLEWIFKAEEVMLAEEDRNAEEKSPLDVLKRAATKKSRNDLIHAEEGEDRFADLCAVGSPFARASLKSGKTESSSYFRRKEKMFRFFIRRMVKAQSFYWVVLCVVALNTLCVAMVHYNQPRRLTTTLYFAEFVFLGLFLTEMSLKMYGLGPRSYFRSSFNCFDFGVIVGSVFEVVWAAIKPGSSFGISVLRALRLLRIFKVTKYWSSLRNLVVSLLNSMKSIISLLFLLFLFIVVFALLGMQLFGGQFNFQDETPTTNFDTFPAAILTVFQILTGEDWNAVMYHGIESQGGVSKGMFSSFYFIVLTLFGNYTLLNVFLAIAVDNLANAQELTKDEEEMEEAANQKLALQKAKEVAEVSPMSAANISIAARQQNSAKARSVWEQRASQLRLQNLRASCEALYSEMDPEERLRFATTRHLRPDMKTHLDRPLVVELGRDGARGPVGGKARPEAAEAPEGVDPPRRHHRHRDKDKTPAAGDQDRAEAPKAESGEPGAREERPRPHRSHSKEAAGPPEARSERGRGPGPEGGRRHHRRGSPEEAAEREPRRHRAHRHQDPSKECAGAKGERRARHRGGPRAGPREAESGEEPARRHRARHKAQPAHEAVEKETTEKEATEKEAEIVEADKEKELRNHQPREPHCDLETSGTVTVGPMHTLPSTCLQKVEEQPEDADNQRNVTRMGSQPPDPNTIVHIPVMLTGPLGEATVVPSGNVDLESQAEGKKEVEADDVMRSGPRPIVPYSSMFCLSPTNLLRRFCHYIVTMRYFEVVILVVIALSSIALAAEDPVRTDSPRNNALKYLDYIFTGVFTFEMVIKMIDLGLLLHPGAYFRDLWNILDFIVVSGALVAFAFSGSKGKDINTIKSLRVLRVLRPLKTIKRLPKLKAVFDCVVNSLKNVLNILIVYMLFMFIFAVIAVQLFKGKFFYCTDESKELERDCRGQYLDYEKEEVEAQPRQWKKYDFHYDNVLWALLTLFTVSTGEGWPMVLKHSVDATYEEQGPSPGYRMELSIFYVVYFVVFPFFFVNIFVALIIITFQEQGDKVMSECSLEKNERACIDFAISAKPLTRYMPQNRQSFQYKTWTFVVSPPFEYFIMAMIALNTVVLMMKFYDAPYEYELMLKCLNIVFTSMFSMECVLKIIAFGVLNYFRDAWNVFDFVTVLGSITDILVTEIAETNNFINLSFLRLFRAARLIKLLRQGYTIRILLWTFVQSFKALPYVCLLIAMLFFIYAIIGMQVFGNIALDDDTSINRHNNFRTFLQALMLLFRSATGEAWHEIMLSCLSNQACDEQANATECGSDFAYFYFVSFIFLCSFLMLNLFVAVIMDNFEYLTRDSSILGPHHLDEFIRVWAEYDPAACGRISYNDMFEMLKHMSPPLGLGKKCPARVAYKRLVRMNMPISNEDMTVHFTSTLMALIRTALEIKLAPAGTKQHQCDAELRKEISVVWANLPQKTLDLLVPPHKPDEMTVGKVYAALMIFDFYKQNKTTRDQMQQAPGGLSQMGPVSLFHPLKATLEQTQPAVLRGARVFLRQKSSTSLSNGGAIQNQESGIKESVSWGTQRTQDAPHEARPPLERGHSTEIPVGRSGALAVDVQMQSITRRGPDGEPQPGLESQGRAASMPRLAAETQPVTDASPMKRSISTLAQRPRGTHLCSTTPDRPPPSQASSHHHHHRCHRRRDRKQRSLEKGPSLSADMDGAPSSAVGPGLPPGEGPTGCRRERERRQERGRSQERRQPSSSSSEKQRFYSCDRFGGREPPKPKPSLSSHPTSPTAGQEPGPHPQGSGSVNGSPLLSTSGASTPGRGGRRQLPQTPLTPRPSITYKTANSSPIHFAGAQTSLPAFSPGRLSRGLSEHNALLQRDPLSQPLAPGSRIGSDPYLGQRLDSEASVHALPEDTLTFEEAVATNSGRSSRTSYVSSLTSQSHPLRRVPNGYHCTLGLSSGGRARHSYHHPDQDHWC
Sequence of human Cav2.2 (P54289 25-946 partner limits assumed): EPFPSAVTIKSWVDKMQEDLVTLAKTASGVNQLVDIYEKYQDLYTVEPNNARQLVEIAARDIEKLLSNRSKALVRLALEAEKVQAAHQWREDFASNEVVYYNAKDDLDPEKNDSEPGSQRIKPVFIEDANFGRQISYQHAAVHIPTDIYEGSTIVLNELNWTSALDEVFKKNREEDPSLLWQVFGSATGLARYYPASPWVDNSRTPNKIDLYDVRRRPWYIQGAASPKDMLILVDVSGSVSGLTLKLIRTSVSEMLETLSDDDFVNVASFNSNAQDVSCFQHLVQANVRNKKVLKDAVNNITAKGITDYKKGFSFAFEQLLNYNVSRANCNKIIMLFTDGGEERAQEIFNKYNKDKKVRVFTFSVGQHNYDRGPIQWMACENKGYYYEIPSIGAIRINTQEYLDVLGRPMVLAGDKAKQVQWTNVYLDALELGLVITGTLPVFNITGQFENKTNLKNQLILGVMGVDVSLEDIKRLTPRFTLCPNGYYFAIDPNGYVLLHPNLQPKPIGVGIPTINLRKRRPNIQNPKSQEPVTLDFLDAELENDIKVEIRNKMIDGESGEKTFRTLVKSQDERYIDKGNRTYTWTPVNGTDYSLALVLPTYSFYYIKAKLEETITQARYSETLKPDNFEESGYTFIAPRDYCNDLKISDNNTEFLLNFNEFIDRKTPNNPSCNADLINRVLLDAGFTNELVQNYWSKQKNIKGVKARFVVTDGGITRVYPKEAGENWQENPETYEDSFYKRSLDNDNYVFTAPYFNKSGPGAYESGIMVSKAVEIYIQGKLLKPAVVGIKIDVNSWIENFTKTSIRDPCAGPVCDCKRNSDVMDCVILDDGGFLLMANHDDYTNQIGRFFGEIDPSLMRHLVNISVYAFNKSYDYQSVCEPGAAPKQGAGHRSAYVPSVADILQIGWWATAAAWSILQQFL
Sequence of human Cav2.2 (P54289 947-1103 partner limits assumed): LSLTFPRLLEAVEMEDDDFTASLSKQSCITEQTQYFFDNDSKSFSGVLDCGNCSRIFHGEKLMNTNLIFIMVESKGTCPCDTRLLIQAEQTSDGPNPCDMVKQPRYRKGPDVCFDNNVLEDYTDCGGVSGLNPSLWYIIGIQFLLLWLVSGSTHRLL
Sequence of human Cav2.2 (P54284 whole entry partner): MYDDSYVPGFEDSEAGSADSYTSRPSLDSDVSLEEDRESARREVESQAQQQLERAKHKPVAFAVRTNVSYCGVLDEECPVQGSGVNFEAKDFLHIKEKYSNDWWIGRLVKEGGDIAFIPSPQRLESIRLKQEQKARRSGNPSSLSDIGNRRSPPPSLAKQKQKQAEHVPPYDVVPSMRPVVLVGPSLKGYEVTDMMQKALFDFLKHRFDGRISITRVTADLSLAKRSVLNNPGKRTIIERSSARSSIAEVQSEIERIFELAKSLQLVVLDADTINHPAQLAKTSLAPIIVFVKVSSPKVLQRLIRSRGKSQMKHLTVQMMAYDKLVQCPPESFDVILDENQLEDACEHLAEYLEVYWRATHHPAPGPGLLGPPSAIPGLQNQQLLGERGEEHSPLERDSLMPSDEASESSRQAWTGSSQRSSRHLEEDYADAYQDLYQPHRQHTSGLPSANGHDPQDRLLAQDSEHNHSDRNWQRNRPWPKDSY

On to `O=C(N[C@@H]1CC[C@@H]2CN(Cc3cccc(C(F)(F)F)c3)C[C@@H]21)C(C1CCCCC1)C1CCCCC1` [Example 157, 2,2-dicyclohexyl-N-{(3aR,4R,6aS)-2-[3-(trifluoromethyl)benzyl]octahydrocyclopenta[c]pyrrol-4-yl}acetamide], for which, at human Cav2.2, the pIC50 was 5.68. Besides, the inhibition in vivo at 30 mg/kg with Sprague Dawley rats stood at 57%.
For `CN[C@@H](CC(C)C)C(=O)N[C@@H]1CC[C@H]2CN(Cc3ccccc3)C[C@H]21` [Example 165, N^1-[(3aS,4R,6aR)-2-benzyloctahydrocyclopenta[c]pyrrol-4-yl]-N^2-methyl-L-leucinamide], the pIC50 on human Cav2.2 is 4.48. Moreover, the inhibition in vivo at 30 mg/kg with Sprague Dawley rats came out at 92%.
The matching figures for `CCC[C@H](NC(=O)OC(C)C)C(=O)N[C@H]1CC[C@@H]2CN(Cc3ccc(C(F)(F)F)cc3)C[C@@H]21` [Example 280, isopropyl(S)-1-oxo-1-((3aR,4S,6aS)-2-(4-(trifluoromethyl)benzyl)octahydrocyclopenta[c]pyrrol-4-ylamino)pentan-2-ylcarbamate]: 5.30 and 38%.
Taken in the same sequence, the figures for `CC(C)N[C@@H](CC(C)(C)C)C(=O)N[C@H]1CC[C@@H]2CN(C(=O)[C@H](Cc3ccccc3)NC(C)C)C[C@@H]21` [Example 489, N^2-isopropyl-N^1-[(3aR,4S,6aS)-2-(N-isopropyl-L-phenylalanyl)octahydrocyclopenta[c]pyrrol-4-yl]-4-methyl-L-leucinamide] were 5.01 and 47%.
As for `O=C(N[C@H]1CC[C@@H]2CN(Cc3cccc(C(F)(F)F)c3)C[C@@H]21)C(C1CCCCC1)C1CCCCC1` [Example 156, 2,2-dicyclohexyl-N-{(3aR,4S,6aS)-2-[3-(trifluoromethyl)benzyl]octahydrocyclopenta[c]pyrrol-4-yl}acetamide], the negative logarithm of the IC50 (pIC50) at human Cav2.2 was 6.10. In addition, the inhibition in vivo at 30 mg/kg in the test on Sprague Dawley rats was 67%.
The matching figures for `CC(C)N[C@@H](CC(C)(C)C)C(=O)N[C@H]1CC[C@@H]2CN(C(=O)[C@H](CC(C)(C)C)NC(C)C)C[C@@H]21` [Example 488, N^2-isopropyl-N^1-[(3aR,4S,6aS)-2-(N-isopropyl-4-methyl-L-leucyl)octahydrocyclopenta[c]pyrrol-4-yl]-4-methyl-L-leucinamide]: 5.13 and 55%.
On to `O=C(N[C@H]1CC[C@@H]2CN(c3cccc(C(F)(F)F)n3)C[C@@H]21)c1ccc(F)cc1` [Example 560, 4-fluoro-N-{(3aR,4S,6aS)-2-[6-(trifluoromethyl)pyridin-2-yl]octahydrocyclopenta[c]pyrrol-4-yl}benzamide], for which the pIC50 at human Cav2.2 is 5.84. For the same compound, in the test with Sprague Dawley rats, the inhibition in vivo at 30 mg/kg was determined as 42%.
As to `O=C(N[C@H]1CC[C@H]2CN(Cc3cccc(C(F)(F)F)c3)C[C@H]21)C(C1CCCCC1)C1CCCCC1` [Example 54, 2,2-dicyclohexyl-N-{(3aS,4S,6aR)-2-[3-(trifluoromethyl)benzyl]octahydrocyclopenta[c]pyrrol-4-yl}acetamide], the pIC50 on human Cav2.2 was 6.30. Also, the inhibition in vivo at 30 mg/kg in the test with Sprague Dawley rats came out at 38%.
As to `O=C(N[C@@H]1CC[C@H]2CN(Cc3cccc(C(F)(F)F)c3)C[C@H]21)C(C1CCCCC1)C1CCCCC1` [Example 75, 2,2-dicyclohexyl-N-{(3aS,4R,6aR)-2-[3-(trifluoromethyl)benzyl]octahydrocyclopenta[c]pyrrol-4-yl}acetamide], on human Cav2.2, the pIC50 was 6.30. Further, in the test with Sprague Dawley rats, the inhibition in vivo at 30 mg/kg amounted to 85%.
With `CC(C)C[C@@H](C(=O)N[C@@H]1CC[C@H]2CN(Cc3ccccc3)C[C@H]21)N1CCCS1(=O)=O` [Example 220, (2S)—N-[(3aS,4R,6aR)-2-benzyloctahydrocyclopenta[c]pyrrol-4-yl]-2-(1,1-dioxidoisothiazolidin-2-yl)-4-methylpentanamide], at human Cav2.2, the pIC50 is under 5.05. In the test on Sprague Dawley rats, the inhibition in vivo at 30 mg/kg was 76%.
As for `CC(C)C[C@H](NS(C)(=O)=O)C(=O)N[C@@H]1CC[C@H]2CN(Cc3cccc(C(F)(F)F)c3)C[C@H]21` [Example 170, N^2-(methylsulfonyl)-N^1-{(3aS,4R,6aR)-2-[3-(trifluoromethyl)benzyl]octahydrocyclopenta[c]pyrrol-4-yl}-L-leucinamide], the inhibition in vivo at 30 mg/kg in the test with Sprague Dawley rats came to 57%.
Regarding `CC(C)(C)C[C@H](NCC1CC1)C(=O)N[C@H]1CC[C@@H]2CN(c3ccc(C(F)(F)F)cn3)C[C@@H]21` [Example 478, N^2-(cyclopropylmethyl)-4-methyl-N^1-{(3aR,4S,6aS)-2-[5-(trifluoromethyl)pyridin-2-yl]octahydrocyclopenta[c]pyrrol-4-yl}-L-leucinamide], the negative logarithm of the IC50 (pIC50) on human Cav2.2 is 6.12. Also, the inhibition in vivo at 30 mg/kg in the test on Sprague Dawley rats was found to be 57%.
As to `CN[C@@H](CC(C)(C)C)C(=O)N[C@H]1CC[C@@H]2CN(S(=O)(=O)c3ccc(C(F)(F)F)cc3)C[C@@H]21` [Example 415, N^2,4-dimethyl-N^1-((3aR,4S,6aS)-2-{[4-(trifluoromethyl)phenyl]sulfonyl}octahydrocyclopenta[c]pyrrol-4-yl)-L-leucinamide], the pIC50 on human Cav2.2 is 5.53. In the test with Sprague Dawley rats, the inhibition in vivo at 30 mg/kg amounted to 52%.
